Laboratory results: paper PMC9138994 (Biomolecules, 2022)

Tested on: C57BL/6 mice
Test: Tail suspension test (TST)
Type: in vivo
Conditions: acute i.p. pretreatment, ST-2300 10 or 15 mg/kg, PIM 5–15 mg/kg, FLX 10 mg/kg, vs saline controls, C57BL/6 mice, 6 min
Protocol: Inbred adult male C57BL/6 mice (aged 10–12 weeks and weighing 20–25 g) were obtained from the animal facility in the College of Medicine and Health Sciences, United Arab Emirates University. The animals were maintained in a separate air-conditioned room with controlled temperature and humidity (24 ± 2 °C and 55 ± 15%, respectively), with a 12 h light/dark cycle, and ad libitum to food and water. All the experiments were performed between 9.00 am and 3.00 pm. The procedures were approved by the Institutional Animal Ethics Committee of College of Medicine and Health Sciences/United Arab Emirates University (Approval No. ERA-2019-6010). To reduce the suffering of the animals, a minimum number of animals were used in this study, whereas the objectives were not compromised.
These experiments provide the first behavioral assessment of the ST-2300 in anxiety-like and depression-like behaviors in mice. All doses are expressed in terms of the free base of all test compounds. The drugs used in the current study were dissolved in saline and injected i.p. at a volume of 1 mL/kg. All experimental procedures were conducted in a blinded fashion in which the experimenter was uninformed about the specific treatment groups to which an animal group belonged. Saline, ST-2300 (5, 10, and 15 mg/kg), PIM (5, 10, and 15 mg/kg), FLX (10 mg/kg), RAM (10 mg/kg), and DZP (1 mg/kg) were injected i.p. 30–45 min before the beginning of the behavioral experiments.
This experimental protocol was followed as previously described, however with slight modifications. Each mouse was suspended on the edge of a rod 50 cm above a table top using adhesive Scotch tape placed approximately 1 cm from the tip of the tail. Tail climbing was prevented by passing the mouse’s tail through a small plastic cylinder prior to suspension, as described by Can et al.. The duration of immobility was manually scored for a 6 min observation period. Mice were considered immobile only when they hung down passively and were completely motionless. The parameter recorded was the number of seconds spent immobile.

CNCCC(Oc1ccc(C(F)(F)F)cc1)c1ccccc1 (stereo not shown) [FLX, fluoxetine, reference compound]
immobility time in TST: significant differences between FLX and saline controls
